From patent US11820773B2, “Tricyclic compounds” (ALIGOS THERAPEUTICS, INC., priority 2020, dated 2023)

The compounds below were run on HBV (assay: HBV-DNA antiviral assay using HepG2.117 cells (intracellular HBV DNA by qPCR)). Conditions: HBV DNA inhibition, 3 days incubation, 2% DMSO.
Assay type: cell-based, genotype D HBV
Experimental: The following assay procedure describes the HBV antiviral assay, using HepG2.117 cells, which carry a stably integrated genotype D HBV genome under the control of a Tet-off promoter, and intracellular HBV DNA quantification as endpoint. Cell viability is assessed in parallel by measuring the intracellular ATP content using CellTiter-Glo 2.0 (Promega).
On day 0, HepG2.117 cells (which are maintained in routine cell culture with doxycycline present in the medium at a final concentration of 1 μg/mL) were seeded in 96-well plates (white with clear bottom) at a density of 2.0×10^4 cells/well (0.1 mL/well) in medium without doxycycline to induce pgRNA transcription and subsequent formation of HBV particles. The cells were incubated at 37° C. and 5% CO2.
On day 1, medium was removed from each well, the test articles were diluted in culture medium without doxcycyline and 100 μL was added to cell culture wells (9 concentrations, 4-fold dilution). For each plate, 6 untreated (merely DMSO) wells were included. The final concentration of DMSO in the culture medium was 2%. Each plate was prepared in duplicate (one for HBV DNA extraction, one for CellTiter-Glo 2.0 measurement). The cells were incubated at 37° C. and 5% CO2 for 3 days.
On day 4, cell viability was assessed using CellTiter-Glo 2.0 and cell lysates were prepared for HBV DNA extraction and subsequent quantification by qPCR.
HBV DNA Quantification by qPCR
Medium was removed from each well and 100 μL of 0.33% NP-40 in H2O was added to each well. Plates were sealed, incubated at 4° C. for 5 mins, vortexed extensively and centrifuged briefly. Next, 35 μL of lysate was added to 65 μL QuickExtract DNA Extraction Solution (Epicentre) in a PCR plate for each well. PCR plate was incubated at 65° C. for 6 mins, 98° C. for 2 mins and finally cooled to 4° C. HBV DNA was then quantified by qPCR with HBV-specific primers and probes as specified in Table 1 using the Bio-Rad SSOAdvanced Universal Probes Supermix on a CFX96 machine (Bio-Rad). The PCR cycle program consisted of 95° C. for 3 mins, followed by 40 cycles at 95° C. for 10 sec and 60° C. for 30 sec.
A DNA standard was prepared by dilution of an IDT gBlock corresponding to the amplicon with concentrations ranging from 10^2 to 10^8 copies/input (i.e. per 4 μL) and used to generate a standard curve by plotting Cq values vs. HBV DNA standard concentration. The quantity of HBV DNA in each sample was determined by interpolating from the standard curve.
Cell viability was calculated as follows: % Cell viability=(luminescence value of test sample)/(average luminescence value of 2% DMSO control)×100%. HBV DNA inhibition was calculated as follows: 100−(HBV DNA copy number of test sample)/(average HBV DNA copy number of 2% DMSO control)×100%. No normalization to entecavir was required due to the excellent dynamic window of this assay. The CC50, EC50 and EC90 values were determined by dose-response curves fitted by GraphPad Prism using “log (agonist) vs. response—Variable slope”.

| SMILES | EC50 [nM] |
| --- | --- |
| CNC(=O)c1ccc(-n2c(=O)c3c(n4ncc(Cc5ccccc5)c24)CN(C(=O)c2ccc(Br)c(C(F)(F)F)c2)CC3)cc1 [Compound 4, 4-[5-benzyl-12-[4-bromo-3-(trifluoromethyl)benzoyl]-8-oxo-2,3,7,12-tetrazacyclo[7.4.0.0^2,6]trideca-1(9),3,5-trien-7-yl]-N-methyl-benzamide] | < 50 |
| CC(C)Cc1cnn2c3c(c(=O)n(-c4ccc(-c5nncn5C)cc4)c12)C[C@@H](C)N(C(=O)c1ccc(Br)c(Cl)c1)C3 [Compound 60a, (11R)-12-(4-bromo-3-chlorobenzoyl)-11-methyl-7-[4-(4-methyl-1,2,4-triazol-3-yl)phenyl]-5-(2-methylpropyl)-2,3,7,12-tetraazatricyclo[7.4.0.0^{2,6}]trideca-1(9),3,5-trien-8-one] | < 50 |

Same assay, conditions: Hepatitis B virus, 72 h, HBV DNA inhibition, 3 days incubation, 2% DMSO

| SMILES | EC50 [nM] |
| --- | --- |
| CNc1n[nH]c2cc(-n3c(=O)c4c(n5ncc(CC6CC6)c35)CN(C(=O)c3ccc(Br)c(C(F)(F)F)c3)CC4)ccc12 [Compound 28, 12-[4-bromo-3-(trifluoromethyl)benzoyl]-5-(cyclopropylmethyl)-7-[3-(methylamino)-1H-indazol-6-yl]-2,3,7,12-tetrazatricyclo[7.4.0.0^2,6]trideca-1(9),3,5-trien-8-one] | < 50 |
| CNc1n[nH]c2cc(-n3c(=O)c4c(n5ncc(CC(C)C)c35)CN(C(=O)c3ccc(Cl)c(C(F)(F)F)c3)[C@@H](C)C4)ccc12 (stereo in doubt) [Compound 56b, rac-(11S)-12-[4-chloro-3-(trifluoromethyl)benzoyl]-5-isobutyl-11-methyl-7-[3-(methylamino)-1H-indazol-6-yl]-2,3,7,12-tetrazatricyclo[7.4.0.0^2,6]trideca-1(9),3,5-trien-8-one] | 50 to 500 |
| C[C@H]1Cc2c(n3ncc(CC4CC4)c3n(-c3ccc(-c4nc(=O)on4C)cc3)c2=O)CN1C(=O)c1ccc(Br)c(C(F)(F)F)c1 (stereo in doubt) [Compound 93b, 2-methyl-3-[4-[rac-(11S)-12-[4-bromo-3-(trifluoromethyl)benzoyl]-5-(cyclopropylmethyl)-11-methyl-8-oxo-2,3,7,12-tetrazatricyclo[7.4.0.0^2,6]trideca-1(9),3,5-trien-7-yl]phenyl]-1,2,4-oxadiazol-5-one] | < 50 |
| CC(C)Cc1cnn2c3c(c(=O)n(-c4ccc5c(c4)nnn5CCO)c12)C[C@@H](C)N(C(=O)c1ccc(Br)c(C(F)(F)F)c1)C3 (stereo in doubt) [Compound 108a, rac-(11R)-12-[4-bromo-3-(trifluoromethyl)benzoyl]-7-[1-(2-hydroxyethyl)benzotriazol-5-yl]-5-isobutyl-11-methyl-2,3,7,12-tetrazatricyclo[7.4.0.0^2,6]trideca-1(9),3,5-trien-8-one] | < 50 |
| Cc1nnc(-c2ccc(-n3c(=O)c4c(n5ncc(CC(C)C)c35)CN(C(=O)c3ccc(Cl)c(C(F)(F)F)c3)[C@@H](C)C4)cc2)[nH]1 (stereo in doubt) [Compound 65b, rac-(11S)-12-[4-chloro-3-(trifluoromethyl)benzoyl]-5-isobutyl-11-methyl-7-[4-(5-methyl-4H-1,2,4-triazol-3-yl)phenyl]-2,3,7,12-tetrazatricyclo[7.4.0.0^2,6]trideca-1(9),3,5-trien-8-one] | 500 to 5000 |
| CC(C)Cc1cnn2c3c(c(=O)n(-c4ccc(-c5nc(=O)on5C)cc4)c12)C[C@H](C)N(C(=O)c1ccc(Br)c(C(F)(F)F)c1)C3 (stereo in doubt) [Compound 94b, 2-methyl-3-[4-[rac-(11S)-12-[4-bromo-3-(trifluoromethyl)benzoyl]-5-isobutyl-11-methyl-8-oxo-2,3,7,12-tetrazatricyclo[7.4.0.0^2,6]trideca-1(9),3,5-trien-7-yl]phenyl]-1,2,4-oxadiazol-5-one] | 50 to 500 |
| CNC(=O)c1cc(-n2c(=O)c3c(n4ncc(CC(C)C)c24)CN(C(=O)c2ccc(Br)c(C(F)(F)F)c2)[C@H](C)C3)nn1C (stereo in doubt) [Compound 77a, N,2-dimethyl-5-[rac-(11R)-12-[4-bromo-3-(trifluoromethyl)benzoyl]-5-isobutyl-11-methyl-8-oxo-2,3,7,12-tetrazatricyclo[7.4.0.0^2,6]trideca-1(9),3,5-trien-7-yl]pyrazole-3-carboxamide] | < 50 |
| C[C@@H]1Cc2c(n3ncc(CC4CCC4)c3n(-c3ccc(-c4nncn4C)cc3)c2=O)CN1C(=O)c1ccc(Br)c(Cl)c1 (stereo in doubt) [Compound 48a, rac-(11R)-12-(4-bromo-3-chloro-benzoyl)-5-(cyclobutylmethyl)-11-methyl-7-[4-(4-methyl-1,2,4-triazol-3-yl)phenyl]-2,3,7,12-tetrazatricyclo[7.4.0.0^2,6]trideca-1(9),3,5-trien-8-one] | < 50 |
| Cc1nnc(-c2ccc(-n3c(=O)c4c(n5ncc(Cc6ccccc6)c35)CN(C(=O)c3ccc(Br)c(C(F)(F)F)c3)[C@@H](C)C4)cc2)[nH]1 (stereo in doubt) [Compound 47b, rac-(11S)-5-benzyl-12-[4-bromo-3-(trifluoromethyl)benzoyl]-11-methyl-7-[4-(5-methyl-4H-1,2,4-triazol-3-yl)phenyl]-2,3,7,12-tetrazatricyclo[7.4.0.0^2,6]trideca-1(9),3,5-trien-8-one] | < 50 |
| C[C@@H]1Cc2c(n3ncc(Cc4ccccc4)c3n(-c3ccc(-c4ncnn4C)cc3)c2=O)CN1C(=O)c1ccc(Br)c(C(F)(F)F)c1 (stereo in doubt) [Compound 49a, rac-(11R)-5-benzyl-12-[4-bromo-3-(trifluoromethyl)benzoyl]-11-methyl-7-[4-(2-methyl-1,2,4-triazol-3-yl)phenyl]-2,3,7,12-tetrazatricyclo[7.4.0.0^2,6]trideca-1(9),3,5-trien-8-one] | < 50 |
| Cn1cncc1-c1ccc(-n2c(=O)c3c(n4ncc(Cc5ccccc5)c24)CN(C(=O)c2ccc(Br)c(C(F)(F)F)c2)CC3)cc1 [Compound 33, 5-benzyl-12-[4-bromo-3-(trifluoromethyl)benzoyl]-7-[4-(3-methylimidazol-4-yl)phenyl]-2,3,7,12-tetrazatricyclo[7.4.0.0^2,6]trideca-1(9),3,5-trien-8-one] | < 50 |
| Cc1nnc(-c2ccc(-n3c(=O)c4c(n5ncc(Cc6ccccc6)c35)CN(C(=O)c3ccc(Br)c(Cl)c3)CC4)cc2)n1C [Compound 31, 5-benzyl-12-(4-bromo-3-chloro-benzoyl)-7-[4-(4,5-dimethyl-1,2,4-triazol-3-yl)phenyl]-2,3,7,12-tetrazatricyclo[7.4.0.0^2,6]trideca-1(9),3,5-trien-8-one] | < 50 |
| C[C@H]1Cc2c(n3ncc(Cc4ccccc4)c3n(-c3ccc(-c4cnnn4C)cc3)c2=O)CN1C(=O)c1ccc(Br)c(C(F)(F)F)c1 (stereo in doubt) [Compound 105b, rac-(11S)-5-benzyl-12-[4-bromo-3-(trifluoromethyl)benzoyl]-11-methyl-7-[4-(3-methyltriazol-4-yl)phenyl]-2,3,7,12-tetrazatricyclo[7.4.0.0^2,6]trideca-1(9),3,5-trien-8-one] | 50 to 500 |
| CC(C)Cc1cnn2c3c(c(=O)n(-c4ccc(-c5nc(=O)on5C)cc4)c12)C[C@@H](C)N(C(=O)c1ccc(Br)c(C(F)(F)F)c1)C3 (stereo in doubt) [Compound 94a, 2-methyl-3-[4-[rac-(11R)-12-[4-bromo-3-(trifluoromethyl)benzoyl]-5-isobutyl-11-methyl-8-oxo-2,3,7,12-tetrazatricyclo[7.4.0.0^2,6]trideca-1(9),3,5-trien-7-yl]phenyl]-1,2,4-oxadiazol-5-one] | < 50 |
| Cc1nnc(-c2ccc(-n3c(=O)c4c(n5ncc(Cc6ccccc6)c35)CN(C(=O)c3ccc(Br)c(Cl)c3)[C@@H](C)C4)cc2)[nH]1 (stereo in doubt) [Compound 53b, rac-(11S)-5-benzyl-12-(4-bromo-3-chloro-benzoyl)-11-methyl-7-[4-(5-methyl-4H-1,2,4-triazol-3-yl)phenyl]-2,37,12-tetrazatricyclo[7.4.0.0^2,6]trideca-1(9),3,5-trien-8-one] | 50 to 500 |
